Data on 19 compounds can be found in US10214502B2, “Method of inhibiting apolipoprotein-E expression while increasing expression of at least one of LDL-receptor protein or AbcA1 protein comprising administering a small compound” (California State University, Fresno, priority 2016, dated 2019).

This assay has as its system apoE3. The experiment in a line: ELISA of apoE3 levels in conditioned media of compound-treated mouse cortical astrocyte cells. Format: cell-based. To be noted: for ApoE3 Levels in Cell Media, Average of Three Tests / ApoE3 Levels in Cell Media, Test 1 / ApoE3 Levels in Cell Media, Test 2 / ApoE3 Levels in Cell Media, Test 3: 10 μM compound, 24 hours, normalized to cell protein, relative to DMSO treated cells. The protocol:
ApoE inhibition can be readily determined by any one of several assays and techniques known to those of ordinary skill in the art, including the enzyme-linked immunosorbant assay (ELISA). In the experimental results shown in Table 2 and FIG. 5, the ELISA assay was carried out on cortical astrocyte cells from mice. Astrocyte cells produce apoE, LDLR and AbcA1 proteins.
The experiments involved treating mouse cortical astrocyte cells with the claimed compounds at 10 μM concentration for an incubation time of 24 hrs. DMSO solvent was used as a negative control, because the compounds were dissolved in DMSO when applied to the cells.
The ELISA technique involves immobilizing an apoE-specific capture antibody to a 96-well plate, addition of sample (conditioned medium from mouse cortical astrocyte cells treated with the compound for 24 hours), and detection of the bound apoE using a second apoE-specific biotinylated antibody and streptavidin-HRP.
The Mabtech ELISA kit detects the presence of the three apoE isoforms: apoE2, apoE3, and apoE4.
To obtain the data shown in Table 2 and FIG. 5, the mouse cortical astrocyte cells were maintained in DMEM medium (Invitrogen) supplemented with 10 mM HEPES, 1 mM sodium pyruvate, 4.5 g/L glucose, 1% penicillin/streptomycin, and 10% fetal bovine growth serum (Invitrogen) at 37° C., with 5% CO2.
The cells (6×10^4 cells/24-well plate) were grown for 1 day in RPMI, followed by a 24 hour equilibration in serum-free Opti-MEM (Life Technologies). Treatments were carried out in triplicate with […] of fresh Opti-MEM containing 10 μM of compound or vehicle (0.1% DMSO) for 24 hours. […] ApoE concentration in the sample was calculated based on a standard curve derived using known amounts of purified apoE (from Biodesign).
The protein levels in the cells in the 24-well plates were measured using BCA Protein Assay Kit (from Pierce) and used to normalize the data. […] Sample apoE3 concentrations were represented relative to the DMSO treated cells.
The bars in FIG. 5 reflect the respective mean level apoE3 in the media for each compound with an indication of one […].

For `O=C(c1ccc2ccccc2c1)N1CCCCC1` [Compound 92], the “ApoE3 Levels in Cell Media, Average of Three Tests” value (shortened to “ApoE3 Levels in Cell Media, Average”) was 115.1327 % of the DMSO control; the “ApoE3 Levels in Cell Media, Test 1” value is listed as 128.0284 % of the DMSO control; the “ApoE3 Levels in Cell Media, Test 2” value is 127.4327 % of the DMSO control; the “ApoE3 Levels in Cell Media, Test 3” value was 89.94 % of the DMSO control.

As for `O=S(=O)(c1cccc2ccccc12)N1CCCCC1` [Compound 122], the “ApoE3 Levels in Cell Media, Average” value is recorded as 92.0952 % of the DMSO control; the “ApoE3 Levels in Cell Media, Test 1” value was 100.1387 % of the DMSO control; the “ApoE3 Levels in Cell Media, Test 2” value is recorded as 96.02 % of the DMSO control; the “ApoE3 Levels in Cell Media, Test 3” value is 80.1244 % of the DMSO control.

`O=C(Nc1ccc(Br)cc1)c1ccc2ccccc2c1` [Compound 101]: the “ApoE3 Levels in Cell Media, Average” value is 96.05 % of the DMSO control; the “ApoE3 Levels in Cell Media, Test 1” value is on record as 93.29 % of the DMSO control; the “ApoE3 Levels in Cell Media, Test 2” value is recorded as 88.21 % of the DMSO control; the “ApoE3 Levels in Cell Media, Test 3” value is recorded as 106.6434 % of the DMSO control.

For `O=S(=O)(c1cccc2ccccc12)N1CCCC1` [Compound 123], the “ApoE3 Levels in Cell Media, Average” value is given as 98.83 % of the DMSO control; the “ApoE3 Levels in Cell Media, Test 1” value is 85.69 % of the DMSO control; the “ApoE3 Levels in Cell Media, Test 2” value is 90.18 % of the DMSO control; the “ApoE3 Levels in Cell Media, Test 3” value is 120.6126 % of the DMSO control.

With `CC(C)CNC(c1ccccc1)(c1ccccc1)c1ccc2ccccc2c1` [Triarylmethyl Amine Compound No. 43, reference compound], the “ApoE3 Levels in Cell Media, Average” value was 82.46 % of the DMSO control; the “ApoE3 Levels in Cell Media, Test 1” value was 86.35 % of the DMSO control; the “ApoE3 Levels in Cell Media, Test 2” value was 74.72 % of the DMSO control; the “ApoE3 Levels in Cell Media, Test 3” value is given as 86.32 % of the DMSO control. Also, where the note is “10 μM, 24 hrs, ELISA of media”, the “apoE (apoE3) expression compared to the control DMSO, in words” value was “effectively decrease”.

With `CCC(C)NS(=O)(=O)c1ccc2ccccc2c1` (centres unmarked) [Compound 93], the “ApoE3 Levels in Cell Media, Average” value is 102.6197 % of the DMSO control; the “ApoE3 Levels in Cell Media, Test 1” value is on record as 103.3801 % of the DMSO control; the “ApoE3 Levels in Cell Media, Test 2” value is listed as 109.2249 % of the DMSO control; the “ApoE3 Levels in Cell Media, Test 3” value is 95.25 % of the DMSO control.

`c1ccc2cc(CN3CCCCC3)ccc2c1` [Compound 141]: the “ApoE3 Levels in Cell Media, Average” value is 80.31 % of the DMSO control; the “ApoE3 Levels in Cell Media, Test 1” value was 80.57 % of the DMSO control; the “ApoE3 Levels in Cell Media, Test 2” value is on record as 95.09 % of the DMSO control; the “ApoE3 Levels in Cell Media, Test 3” value is 65.29 % of the DMSO control.

Turning to `CC(C)CNS(=O)(=O)c1ccc2ccccc2c1` [Compound 94], the “ApoE3 Levels in Cell Media, Average” value is listed as 106.8342 % of the DMSO control; the “ApoE3 Levels in Cell Media, Test 1” value is 99.12 % of the DMSO control; the “ApoE3 Levels in Cell Media, Test 2” value is given as 91.64 % of the DMSO control; the “ApoE3 Levels in Cell Media, Test 3” value is reported as 129.7451 % of the DMSO control.

For the compound `CCC(C)NS(=O)(=O)c1ccc(-c2ccccc2)cc1` (centres unmarked) [Compound 132], the “ApoE3 Levels in Cell Media, Average” value was 86.84 % of the DMSO control; the “ApoE3 Levels in Cell Media, Test 1” value is given as 81.51 % of the DMSO control; the “ApoE3 Levels in Cell Media, Test 2” value is given as 85.61 % of the DMSO control; the “ApoE3 Levels in Cell Media, Test 3” value is 93.42 % of the DMSO control.

On to `CC(C)CNS(=O)(=O)c1cccc2ccccc12` [Compound 121], for which the “ApoE3 Levels in Cell Media, Average” value is given as 113.6663 % of the DMSO control; the “ApoE3 Levels in Cell Media, Test 1” value is 113.2938 % of the DMSO control; the “ApoE3 Levels in Cell Media, Test 2” value was 128.755 % of the DMSO control; the “ApoE3 Levels in Cell Media, Test 3” value is 98.9502 % of the DMSO control.

Regarding `CC(NS(=O)(=O)c1ccc2ccccc2c1)c1ccccc1` (centres unmarked) [Compound 131], the “ApoE3 Levels in Cell Media, Average” value is listed as 85.9 % of the DMSO control; the “ApoE3 Levels in Cell Media, Test 1” value was 78.38 % of the DMSO control; the “ApoE3 Levels in Cell Media, Test 2” value is on record as 91.41 % of the DMSO control; the “ApoE3 Levels in Cell Media, Test 3” value is recorded as 87.92 % of the DMSO control.

On to `CCN(CC)S(=O)(=O)c1cccc2ccccc12` [Compound 126], for which the “ApoE3 Levels in Cell Media, Average” value is recorded as 89.15 % of the DMSO control; the “ApoE3 Levels in Cell Media, Test 1” value was 93.7 % of the DMSO control; the “ApoE3 Levels in Cell Media, Test 2” value is on record as 89.1 % of the DMSO control; the “ApoE3 Levels in Cell Media, Test 3” value was 84.66 % of the DMSO control.

Regarding `COc1ccc(NC(=O)c2ccc3ccccc3c2)cc1` [Compound 99], the “ApoE3 Levels in Cell Media, Average” value was 104.5892 % of the DMSO control; the “ApoE3 Levels in Cell Media, Test 1” value is reported as 106.2723 % of the DMSO control; the “ApoE3 Levels in Cell Media, Test 2” value is 116.3467 % of the DMSO control; the “ApoE3 Levels in Cell Media, Test 3” value is on record as 91.15 % of the DMSO control.

Regarding `CCCCN(CCCC)S(=O)(=O)c1ccc2ccccc2c1` [Compound 128], the “ApoE3 Levels in Cell Media, Average” value is 83.97 % of the DMSO control; the “ApoE3 Levels in Cell Media, Test 1” value is on record as 85.63 % of the DMSO control; the “ApoE3 Levels in Cell Media, Test 2” value is 91.51 % of the DMSO control; the “ApoE3 Levels in Cell Media, Test 3” value is listed as 74.78 % of the DMSO control.

Take `O=S(=O)(NCc1ccccc1)c1ccc(-c2ccccc2)cc1` [Compound 135]: the “ApoE3 Levels in Cell Media, Average” value is recorded as 99.36 % of the DMSO control; the “ApoE3 Levels in Cell Media, Test 1” value was 93.55 % of the DMSO control; the “ApoE3 Levels in Cell Media, Test 2” value is reported as 101.8388 % of the DMSO control; the “ApoE3 Levels in Cell Media, Test 3” value is reported as 102.6888 % of the DMSO control.

Take `O=C(c1ccc2ccccc2c1)N1CCOCC1` [Compound 90]: the “ApoE3 Levels in Cell Media, Average” value was 98.59 % of the DMSO control; the “ApoE3 Levels in Cell Media, Test 1” value was 90.22 % of the DMSO control; the “ApoE3 Levels in Cell Media, Test 2” value was 91.69 % of the DMSO control; the “ApoE3 Levels in Cell Media, Test 3” value is given as 113.8441 % of the DMSO control.

With `CCC(C)NS(=O)(=O)c1cccc2ccccc12` (centres unmarked) [Compound 120], the “ApoE3 Levels in Cell Media, Average” value is 88.28 % of the DMSO control; the “ApoE3 Levels in Cell Media, Test 1” value is reported as 100.2942 % of the DMSO control; the “ApoE3 Levels in Cell Media, Test 2” value was 88.31 % of the DMSO control; the “ApoE3 Levels in Cell Media, Test 3” value is given as 76.25 % of the DMSO control.

As for `c1ccc2cc(CN3CCOCC3)ccc2c1` [Compound 138], the “ApoE3 Levels in Cell Media, Average” value is given as 104.8487 % of the DMSO control; the “ApoE3 Levels in Cell Media, Test 1” value is on record as 103.8509 % of the DMSO control; the “ApoE3 Levels in Cell Media, Test 2” value is 97.61 % of the DMSO control; the “ApoE3 Levels in Cell Media, Test 3” value is on record as 113.0808 % of the DMSO control.

Regarding `CC(C)N(C(C)C)S(=O)(=O)c1ccc2ccccc2c1` [Compound 130], the “ApoE3 Levels in Cell Media, Average” value is 89.39 % of the DMSO control; the “ApoE3 Levels in Cell Media, Test 1” value is 89.06 % of the DMSO control; the “ApoE3 Levels in Cell Media, Test 2” value was 79.12 % of the DMSO control; the “ApoE3 Levels in Cell Media, Test 3” value is 100.0032 % of the DMSO control.
